From US9409915B2, “Substituted aza-bicyclic imidazole derivatives useful as TRPM8 receptor modulators” (Janssen Pharmaceutica NV, priority 2010, dated 2016)
Counter-ions that a name gives are not always drawn.

Target: canine TRPM8 (Canis lupus familiaris, UniProt Q1A7N1)
Experiment: In vitro canine TRPM8 functional assay (Ca2+-sensitive fluorescent dye, icilin activation)
Type: cell-based
Conditions: HEK293 cells stably expressing canine TRPM8, icilin-induced Ca2+ response; for IC50: eight-point concentration-response
Method: The functional activity of representative compounds of the formula (I) of the present invention was quantified by measuring changes in intracellular calcium concentration using a Ca^2+-sensitive fluorescent dye. The changes in fluorescent signal were monitored by a fluorescence plate reader, either a FLIPR™ (Molecular Devices) or FDSS (Hamamatsu).
HEK293 cells stably expressing canine TRPM8 were routinely grown as monolayers in Dulbecco's minimum essential medium supplemented with 10% FBS, 2 mM L-glutamine, 100 units/mL penicillin, 100 ug/mL streptomycin and 400 μg/mL G418. Cells were maintained in 5% CO2 at 37° C. At 24 hr prior to assay, cells were seeded in black wall, clear-base poly-D-lysine coated 384-well plates (BD Biosciences, NJ, USA) at a density of 5,000 cells per well in culture medium and grown overnight in 5% CO2 at 37° C. On assay day, growth media was removed, and cells were loaded with Calcium 3 Dye (Molecular Devices) for 35 min at 37° C., under 5% CO2 and then incubated for 25 min at room temperature and atmosphere. Subsequently, cells were tested for agonist-induced increases in intracellular Ca^2+ levels using FLIPR™ or FDSS. Cells were treated with compounds of the formula (I) at varying concentrations and intracellular Ca^2+ was measured for 5 min prior to the addition of icilin to each well to achieve a final concentration that produces an approximately 80% maximal response.
Maximal fluorescence intensity (FI) achieved upon addition of icilin was exported from the FLIPR™ or FDSS software and further analyzed using GraphPad Prism 3.02 (Graph Pad Software Inc., CA, U.S.A.). Basal FI was subtracted prior to normalizing data to percent of maximal response. Curves were generated using the average of quadruplicate wells for each data point using nonlinear regression of either sigmoidal dose response or sigmoidal dose response (variable slope). Finally, the EC50 and IC50 values were calculated with the best-fit curve determined by GraphPad Prism

canine TRPM8, sequence (Q1A7N1 1-1104): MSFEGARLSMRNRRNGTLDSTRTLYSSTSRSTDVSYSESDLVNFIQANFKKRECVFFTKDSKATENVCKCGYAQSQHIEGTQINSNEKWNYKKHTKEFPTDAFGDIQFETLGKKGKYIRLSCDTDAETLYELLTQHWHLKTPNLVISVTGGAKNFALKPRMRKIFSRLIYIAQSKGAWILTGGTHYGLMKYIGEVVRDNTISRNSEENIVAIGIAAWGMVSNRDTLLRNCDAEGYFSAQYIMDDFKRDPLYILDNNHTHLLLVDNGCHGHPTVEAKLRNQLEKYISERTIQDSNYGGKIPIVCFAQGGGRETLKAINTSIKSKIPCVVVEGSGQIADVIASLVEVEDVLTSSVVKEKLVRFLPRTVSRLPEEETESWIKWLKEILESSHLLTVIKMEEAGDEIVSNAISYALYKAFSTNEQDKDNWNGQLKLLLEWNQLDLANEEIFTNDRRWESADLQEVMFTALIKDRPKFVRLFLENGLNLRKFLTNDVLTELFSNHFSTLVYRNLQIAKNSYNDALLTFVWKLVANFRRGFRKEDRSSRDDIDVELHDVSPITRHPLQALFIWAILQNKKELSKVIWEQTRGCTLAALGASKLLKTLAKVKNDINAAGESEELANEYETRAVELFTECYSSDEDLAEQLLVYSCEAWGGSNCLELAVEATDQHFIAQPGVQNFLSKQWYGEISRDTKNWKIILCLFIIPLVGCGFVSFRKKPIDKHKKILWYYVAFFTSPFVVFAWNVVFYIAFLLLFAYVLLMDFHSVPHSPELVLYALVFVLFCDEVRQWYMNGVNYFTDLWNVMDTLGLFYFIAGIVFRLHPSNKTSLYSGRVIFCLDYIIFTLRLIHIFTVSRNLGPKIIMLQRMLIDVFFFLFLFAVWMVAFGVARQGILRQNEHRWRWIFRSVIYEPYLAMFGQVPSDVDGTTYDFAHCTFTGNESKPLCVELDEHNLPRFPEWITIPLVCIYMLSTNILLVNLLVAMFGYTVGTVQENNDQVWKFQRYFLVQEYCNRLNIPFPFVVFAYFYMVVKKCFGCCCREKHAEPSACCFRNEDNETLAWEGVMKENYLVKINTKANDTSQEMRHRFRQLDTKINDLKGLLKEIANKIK

| SMILES | inhibition at 0.2 µM (0.2 μM compound) [%] | IC50 [nM] | % Inh @ 0.2 μM (0.2 μM compound) [%] | inhibition at 0.2 µM (HEK293, 0.2 μM compound) [%] | % Inh @ 0.2 μM (0.2 μM compound, hydrochloride) [%] |
| --- | --- | --- | --- | --- | --- |
| COc1nc(-c2ccccc2Cl)cc2nc(-c3csc(C(C)C)c3)[nH]c12 [Compound 98, 6-(2-Chloro-phenyl)-2-(5-isopropyl-thiophen-3-yl)-4-methoxy-3H-imidazo[4,5-c]pyridine] | 100 | 14 | – | – | – |
| Cn1nc(C(C)(C)C)c(Cl)c1-c1nc2cc(-c3ccccc3Cl)nc(OCCO)c2[nH]1 [Compound 58, 2-[2-(5-tert-Butyl-4-chloro-2-methyl-2H-pyrazol-3-yl)-6-(2-chloro-phenyl)-3H-imidazo[4,5-c]pyridin-4-yloxy]-ethanol] | 101 | 2 | – | – | – |
| COc1nc(-c2ccccc2Cl)cc2nc(-c3cnn(C(C)(C)C)c3C)[nH]c12 [Compound 100, 2-(1-tert-Butyl-5-methyl-1H-pyrazol-4-yl)-6-(2-chloro-phenyl)-4-methoxy-3H-imidazo[4,5-c]pyridine sodium salt] | 94 | 61.3 | – | – | – |
| Cn1nc(C(C)(C)C)c(Cl)c1-c1nc2nc(-c3ccccc3C(F)(F)F)cc(C(F)(F)F)c2[nH]1 [Compound 1] | – | 27 | 99 | – | – |
| CN(C)CCOc1nc(-c2ccccc2C(F)(F)F)cc2nc(-c3c(Cl)c(C(C)(C)C)nn3C)[nH]c12 [Compound 53, {2-[2-(5-tert-Butyl-4-chloro-2-methyl-2H-pyrazol-3-yl)-6-(2-trifluoromethyl-phenyl)-3H-imidazo[4,5-c]pyridin-4-yloxy]-ethyl}-dimethyl-amine] | 99 | 27 | – | – | – |
| Cn1nc2c(c1-c1nc3c(Cl)nc(-c4ccccc4C(F)(F)F)cc3[nH]1)CCC21CCCCC1 [Compound 72, 3′-{4-Chloro-6-[2-(trifluoromethyl)phenyl]-1H-imidazo[4,5-c]pyridin-2-yl}-2′-methyl-4′,5′-dihydro-2′H-spiro[cyclohexane-1,6′-cyclopenta[c]pyrazole] hydrochloride] | 95 | 63 | – | – | – |
| COc1nc(-c2ccccc2Cl)cc2nc(-c3cnn(C(C)(C)C)c3)[nH]c12 [Compound 102, 2-(1-tert-Butyl-1H-pyrazol-4-yl)-6-(2-chloro-phenyl)-4-methoxy-3H-imidazo[4,5-c]pyridine sodium salt] | 70 | 120 | – | – | – |
| Cn1nc(C(C)(C)C)c(C#N)c1-c1nc2cc(-c3ccccc3Cl)nc(OCC(=O)O)c2[nH]1 [Compound 85, [2-(5-tert-Butyl-4-cyano-2-methyl-2H-pyrazol-3-yl)-6-(2-chloro-phenyl)-3H-imidazo[4,5-c]pyridin-4-yloxy]-acetic acid] | 32 | – | – | – | – |
| Cn1nc(C(C)(C)C)cc1-c1nc2cc(-c3ccccc3Cl)ncc2[nH]1 [Compound 41, 2-(5-tert-Butyl-2-methyl-2H-pyrazol-3-yl)-6-(2-chloro-phenyl)-3H-imidazo[4,5-c]pyridine hydrochloride] | 94 | 51 | – | – | – |
| CC(C)(C)c1cc(-c2nc3nc(-c4ccccc4C(F)(F)F)cc(C(F)(F)F)c3[nH]2)on1 [Compound 10, 2-(3-tert-Butyl-isoxazol-5-yl)-7-trifluoromethyl-5-(2-trifluoromethyl-phenyl)-1H-imidazo[4,5-b]pyridine] | 101 | 16 | – | – | – |
| CN1CCN(c2nc(-c3ccccc3C(F)(F)F)cc3nc(-c4c(C#N)c(C(C)(C)C)nn4C)[nH]c23)CC1 [Compound 24, 3-tert-Butyl-1-methyl-5-[4-(4-methyl-piperazin-1-yl)-6-(2-trifluoromethyl-phenyl)-3H-imidazo[4,5-c]pyridin-2-yl]-1H-pyrazole-4-carbonitrile methanesulfonic acid salt] | – | 7.4 | – | 99 | – |
| Cl.Cn1nc(C(C)(C)C)c(Cl)c1-c1nc2cc(-c3ccccc3F)ncc2[nH]1 [Compound 43, 2-(5-tert-Butyl-4-chloro-2-methyl-2H-pyrazol-3-yl)-6-(2-fluoro-phenyl)-3H-imidazo[4,5-c]pyridine hydrochloride] | – | 22 | – | – | 100 |
| Cn1nc(C(C)(C)C)cc1-c1nc2cc(-c3ccccc3C(F)(F)F)nc(Cl)c2[nH]1 [Compound 74, 2-(5-tert-Butyl-2-methyl-2H-pyrazol-3-yl)-4-chloro-6-(2-trifluoromethyl-phenyl)-3H-imidazo[4,5-c]pyridine hydrochloride] | 93 | 96 | – | – | – |
| CN(C)CCOc1nc(-c2ccccc2Cl)cc2nc(-c3c(Cl)c(C(C)(C)C)nn3C)[nH]c12 [Compound 56, {2-[2-(5-tert-Butyl-4-chloro-2-methyl-2H-pyrazol-3-yl)-6-(2-chloro-phenyl)-3H-imidazo[4,5-c]pyridin-4-yloxy]-ethyl}-dimethyl-amine] | 99 | 24 | – | – | – |
| Cn1nc(C(C)(C)C)c(Cl)c1-c1nc2nc(-c3ccccc3F)ccc2[nH]1 [Compound 33, 2-(5-tert-Butyl-4-chloro-2-methyl-2H-pyrazol-3-yl)-5-(2-fluoro-phenyl)-1H-imidazo[4,5-b]pyridine hydrochloride] | 98 | 40 | – | – | – |
| COCCOc1nc(-c2ccccc2C(F)(F)F)cc2nc(-c3c(Cl)c(C(C)(C)C)nn3C)[nH]c12 [Compound 20, 2-(5-tert-Butyl-4-chloro-2-methyl-2H-pyrazol-3-yl)-4-(2-methoxy-ethoxy)-6-(2-trifluoromethyl-phenyl)-3H-imidazo[4,5-c]pyridine benzenesulfonic acid salt] | 99 | 0.95 | – | – | – |
| Cn1nc(C(C)(C)C)cc1-c1nc2nc(-c3ccccc3Cl)ccc2[nH]1 [Compound 27, 2-(5-tert-Butyl-2-methyl-2H-pyrazol-3-yl)-5-(2-chloro-phenyl)-1H-imidazo[4,5-b]pyridine] | 73 | 124 | – | – | – |
| Cn1nc(C(C)(C)C)c(C#N)c1-c1nc2cc(-c3ccccc3C(F)(F)F)nc(N3CCCCC3)c2[nH]1 [Compound 22, 3-tert-Butyl-1-methyl-5-[4-piperidin-1-yl-6-(2-trifluoromethyl-phenyl)-3H-imidazo[4,5-c]pyridine-2-yl]-1H-pyrazole-4-carbonitrile] | 99 | 1.4 | – | – | – |
| Cn1nc(C(C)(C)C)c(Cl)c1-c1nc2cc(-c3ccccc3Cl)nc(OCC(F)(F)F)c2[nH]1 [Compound 89, 2-(5-tert-Butyl-4-chloro-2-methyl-2H-pyrazol-3-yl)-6-(2-chlorophenyl)-4-(2,2,2-trifluoro-ethoxy)-3H-imidazo[4,5-c]pyridine sodium salt] | 100 | 0.53 | – | – | – |
| Cn1nc(C(C)(C)C)c(Cl)c1-c1nc2nc(-c3ccccc3OC(F)(F)F)cnc2[nH]1 [Compound 94, 2-(5-tert-Butyl-4-chloro-2-methyl-2H-pyrazol-3-yl)-5-(2-trifluoromethoxy-phenyl)-1H-imidazo[4,5-b]pyrazine] | 99 | 22.5 | – | – | – |
| COc1cc(-c2ccccc2C(F)(F)F)nc2nc(-c3onc(C(C)(C)C)c3C#N)[nH]c12 [Compound 70, 3-tert-Butyl-5-[7-methoxy-5-(2-trifluoromethyl-phenyl)-1H-imidazo[4,5-b]pyridin-2-yl]-isoxazole-4-carbonitrile methanesulfonic acid salt] | 36 | – | – | – | – |
| CC(C)(C)c1cc(-c2nc3nc(-c4ccccc4Cl)ccc3[nH]2)on1 [Compound 26, 2-(3-tert-Butyl-isoxazol-5-yl)-5-(2-chloro-phenyl)-1H-imidazo[4,5-b]pyridine] | 100 | 35 | – | – | – |
